Source: patent US20230293526A1, “METHOD FOR TREATING CANCER WITH A REVERSE TRANSCRIPTASE INHIBITOR” (PrimeFour Therapeutics, Inc., priority 2020, published 2023)

Tests used:
[1] = tested on: cancer cell lines; assay: Cancer cell proliferation activity of representative nucleosides, CellTiterGlo 72 h (Example 7, Tables 8 and 9); type: cell-based; details: 72 h
In short: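 Percent viability was set against 0.1% DMSO (100%) and 10 μM staurosporine (0%), with signal from CellTiterGlo luminescence. Dose-response treatment began one day after seeding and lasted 72 h at 37° C under 5% or 10% CO2, with 0.1% final DMSO.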

[2] = tested on: human LINE-1; assay: Human LINE-1 (L1) retrotransposition dual-luciferase reporter assay in HeLa cells; type: cell-based; details: Homo sapiens, HeLa, 72 h, read-out: Human LINE-1 IC50 (Human L1 activity inhibition)
In short: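 Compound dilution series (final DMSO 0.2%) added right after transfecting HeLa cells with the pYX017 L1 dual-luciferase reporter; 72 h culture at 37 °C, 5% CO2, triplicates. IC50 fitted by non-linear logistic regression to firefly-to-Renilla luminescence ratio (×10,000).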

C#C[C@]1(CO)O[C@@H](n2ccc(N)nc2=O)C[C@@H]1O [compound 7, 4-amino-1-((2R,4S,5R)-5-ethynyl-4-hydroxy-5 (hydroxymethyl)tetrahydrofuran-2-yl)pyrimidin-2(1H)-one]
IC50 ([1]; 72 h, 5637, bladder): 1.24 µM | IC50 ([1]; CLS439, bladder): > 50 µM | IC50 ([1]; HS729, muscle): 2.1 µM | IC50 ([1]; J82, bladder): 2.77 µM | IC50 ([1]; JAR, placenta): > 50 µM | IC50 ([1]; MT3, breast): 0.57 µM | IC50 ([1]; PC3, prostate): 1.09 µM | IC50 ([1]; RD, muscle): 3.86 µM | IC50 ([1]; T24, bladder): 1.03 µM | IC50 ([1]; Homo sapiens, 22Rv1, 72 h, 22RV1, prostate): 4.8 µM | IC50 ([1]; Homo sapiens, 786-0, 72 h, 786O, kidney): 4.28 µM | IC50 ([1]; Homo sapiens, A204, 72 h, A204, muscle): 0.18 µM | IC50 ([1]; Homo sapiens, A549, 72 h, A549, lung): 2.19 µM | IC50 ([1]; Homo sapiens, A673, 72 h, A673, bone): 1.97 µM | IC50 ([1]; Homo sapiens, A2780, 72 h, A2780, ovary): 2.72 µM | IC50 ([1]; Homo sapiens, A-375, 72 h, A375, skin): 3.54 µM | IC50 ([1]; Homo sapiens, A-431, 72 h, A431, skin): 2.01 µM | IC50 ([1]; Homo sapiens, ACHN, kidney): 2.76 µM | IC50 ([1]; Homo sapiens, ASPC1, 72 h, ASPC1, pancreas): 1.23 µM | IC50 ([1]; Homo sapiens, BT-20, 72 h, BT20, breast): > 50 µM | IC50 ([1]; Homo sapiens, BXPC-3, 72 h, BXPC3, pancreas): 4.12 µM | IC50 ([1]; Homo sapiens, C-33-A, C33A, endometrial): 1.03 µM | IC50 ([1]; Homo sapiens, CAKI-1, 72 h, CAKI1, kidney): 0.45 µM | IC50 ([1]; Homo sapiens, COLO 205, 72 h, COLO205, colon): 0.29 µM | IC50 ([1]; Homo sapiens, COLO-678, 72 h, COLO678, colon): > 50 µM | IC50 ([1]; Homo sapiens, Ca-Ski, CASKI, endometrial): > 50 µM | IC50 ([1]; Homo sapiens, Calu-6, 72 h, CALU6, lung): 6.33 µM | IC50 ([1]; Homo sapiens, DLD-1, 72 h, DLD1, colon): 4.63 µM | IC50 ([1]; Homo sapiens, DU-145, 72 h, DU145, prostate): 3.4 µM | IC50 ([1]; Homo sapiens, EFO-21, 72 h, EFO21, ovary): > 50 µM | IC50 ([1]; Homo sapiens, EJ-28, 72 h, EJ28, bladder): 3.05 µM | IC50 ([1]; Homo sapiens, Granta-519, 72 h, GRANTA-519, hematological): 0.33 µM | IC50 ([1]; Homo sapiens, HCT-15, 72 h, HCT15, colon): 3.28 µM | IC50 ([1]; Homo sapiens, HCT-116, 72 h, HCT116, colon): 2.44 µM | IC50 ([1]; Homo sapiens, HEK293, 72 h, HEK293, kidney): > 50 µM | IC50 ([1]; Homo sapiens, HL-60, 72 h, HL-60, hematological): 2.03 µM | IC50 ([1]; Homo sapiens, HT-29, 72 h, HT29, colon): 4.06 µM | IC50 ([1]; Homo sapiens, HT-1080, 72 h, HT1080, connective tissue): 1.58 µM | IC50 ([1]; Homo sapiens, HeLa, endometrial): 2.11 µM | IC50 ([1]; Homo sapiens, HepG2, 72 h, HEPG2, liver): 3.08 µM | IC50 ([1]; Homo sapiens, Hs-578T, HS578T, breast): 4.73 µM | IC50 ([1]; Homo sapiens, IGROV-1, 72 h, IGROV1, ovary): 3.42 µM | IC50 ([1]; Homo sapiens, IMR-90, 72 h, IMR90, lung): > 50 µM | IC50 ([1]; Homo sapiens, JEG-3, 72 h, JEG3, placenta): > 50 µM | IC50 ([1]; Homo sapiens, JIMT-1, 72 h, JIMT1, breast): 0.82 µM | IC50 ([1]; Homo sapiens, K562, 72 h, K-562, hematological): 3.52 µM | IC50 ([1]; Homo sapiens, Kasumi 1, 72 h, KASUMI-1, hematological): 0.32 µM | IC50 ([1]; Homo sapiens, L-363, 72 h, L-363, hematological): > 50 µM | IC50 ([1]; Homo sapiens, LoVo, colon): 1.9 µM | IC50 ([1]; Homo sapiens, MCF7, 72 h, MCF7, breast): > 50 µM | IC50 ([1]; Homo sapiens, MDA-MB-231, 72 h, MDAMB231, breast): 0.48 µM | IC50 ([1]; Homo sapiens, MDA-MB-435, 72 h, MDAMB435, skin): 3.49 µM | IC50 ([1]; Homo sapiens, MDA-MB-436, 72 h, MDAMB436, breast): 3.8 µM | IC50 ([1]; Homo sapiens, MDA-MB-468, 72 h, MDAMB468, breast): > 50 µM | IC50 ([1]; Homo sapiens, MG-63, 72 h, MG63, bone): 2.93 µM | IC50 ([1]; Homo sapiens, MHH-ES-1, 72 h, MHHES1, bone): 2.06 µM | IC50 ([1]; Homo sapiens, MIA PaCa-2, 72 h, MIAPACA2, pancreas): 5.54 µM | IC50 ([1]; Homo sapiens, MINO, hematological): 0.2 µM | IC50 ([1]; Homo sapiens, MV4-11, 72 h, MV4-11, hematological): 4.32 µM | IC50 ([1]; Homo sapiens, NCI-H23, 72 h, NCI-H23, lung): 2.79 µM | IC50 ([1]; Homo sapiens, NCI-H82, 72 h, NCIH82, lung): 17.1 µM | IC50 ([1]; Homo sapiens, NCI-H292, 72 h, NCIH292, lung): 1.94 µM | IC50 ([1]; Homo sapiens, NCI-H460, 72 h, NCIH460, ung): 2.99 µM | IC50 ([1]; Homo sapiens, OVCAR-3, 72 h, OVCAR3, ovary): 2.39 µM | IC50 ([1]; Homo sapiens, OVCAR-4, 72 h, OVCAR4, ovary): > 50 µM | IC50 ([1]; Homo sapiens, PANC-1, 72 h, PANC1, pancreas): > 50 µM | IC50 ([1]; Homo sapiens, PLC-PRF-5, 72 h, PLCPRF5, liver): > 50 µM | IC50 ([1]; Homo sapiens, Panc1005, 72 h, PANC1005, pancreas): 2.57 µM | IC50 ([1]; Homo sapiens, Ramos, hematological): 0.37 µM | IC50 ([1]; Homo sapiens, SAOS-2, 72 h, SAOS2, bone): 0.64 µM | IC50 ([1]; Homo sapiens, SK-BR-3, 72 h, SKBR3, breast): 2.11 µM | IC50 ([1]; Homo sapiens, SK-HEP1, 72 h, SKHEP1, liver): 1.29 µM | IC50 ([1]; Homo sapiens, SK-LMS-1, 72 h, SKLMS1, uterus): 4.2 µM | IC50 ([1]; Homo sapiens, SK-MEL-5, 72 h, SKMEL5, skin): > 50 µM | IC50 ([1]; Homo sapiens, SK-MEL-28, 72 h, SKMEL28, skin): > 50 µM | IC50 ([1]; Homo sapiens, SK-OV-3, 72 h, SKOV3, ovary): 3.11 µM | IC50 ([1]; Homo sapiens, SU-DHL10, 72 h, SU-DHL-10, hematological): 0.69 µM | IC50 ([1]; Homo sapiens, SU-DHL-6, 72 h, SU-DHL-6, hematological): 1.06 µM | IC50 ([1]; Homo sapiens, SW-620, 72 h, SW620, colon): 2.93 µM | IC50 ([1]; Homo sapiens, TE-671, 72 h, TE671, muscle): 3.49 µM | IC50 ([1]; Homo sapiens, THP-1, 72 h, THP-1, hematological): 3.43 µM | IC50 ([1]; Homo sapiens, U2OS, bone): > 50 µM | IC50 ([1]; Homo sapiens, UMUC3, 72 h, UMUC3, bladder): 3.07 µM | IC50 ([1]; Homo sapiens, UO-31, 72 h, UO31, kidney): 1.53 µM | IC50 ([1]; Homo sapiens, WSU-NHL, hematological): 0.34 µM | IC50 ([1]; NCI-H358M, NCIH358M, lung): 0.29 µM | IC50 ([1]; PBMC, hematological): > 50 µM | IC50 ([1]; RD-ES, RDES, bone): > 50 µM | IC50 [2]: 0.0097 µM
